Test results taken from US20150352022A1, “Cosmetic Compositions and Methods For Inhibiting Melanin Synthesis” (The Procter & Gamble Company, priority 2013, published 2015).

Tested on: B16-F1 mouse melanoma cells
Assay: Melanin Synthesis Assay
Format: cell-based
Method: A B16-F1 mouse melanoma cell line may be employed as an assay to measure melanin synthesis. The B16-F1 cells may be obtained from American Tissue Culture Collection, Virginia, USA. The cell culture medium that may be used in the assay may comprise 500 mL of Dulbecco's Modified Eagle's Medium (DMEM), 50 mL Fetal Bovine Serum (FBS), and 5 mL of penicillin-streptomycin liquid. B16-F1 cells that are cultured in this medium and grown to greater than 90% confluency synthesize melanin. While not intending to be bound by any theory, it is hypothesized that melanin synthesis is stimulated by the culture medium and/or stress induced by growth to a high confluency. […] Equipment used in the assay include a CO2 incubator, such as a Forma Series Model 3110 by Therma Scientific, Massachusetts, USA; a hemocytometer, such as a Bright Line model by Hauser Scientific, Pennsylvania, USA; and a UV-Visible Spectrum Plate Reader, such as a SpectraMax250 from Molecular Devices, California, USA. […] Read the 96 well plate using the UV-Vis Plate Reader at 410 nm to optically measure the amount of melanin produced between wells that are treated with [test compound] and control wells that are not treated with a test compound. […] Percentage of melanin synthesis inhibition is calculated by the following equation: [formula] Where OD410 is the Optical Density at 410 nm as measured by the UV-Vis Spectrum Plate Reader. […]

## CC(C)=CCC[C@](C)(O)[C@@H]1CC=C(C)CC1 [Sample 1, bisabolol]
OD 410 nm, Bis 0.1%, HD 0.00056%, UP 0.00011%, Nia 0.00056% where present
  Average Melanin % Inhibition: 2.2%
Statistical comparison versus Sample 4
  reduction of the production of melanin as compared to Sample 4 (HD/UP/Nia): did not significantly reduce
